Experimental data published in the supplement of paper PMC10307832.

Assays:
Test in all cases: relative viability (nuclei count vs DMSO), 5 days (fraction); higher = more cells survive
Dabrafenib + Tozasertib = compound: CC(C)(C)c1nc(-c2cccc(NS(=O)(=O)c3c(F)cccc3F)c2F)c(-c2ccnc(N)n2)s1 [Dabrafenib] + Cc1cc(Nc2cc(N3CCN(C)CC3)nc(Sc3ccc(NC(=O)C4CC4)cc3)n2)n[nH]1 [Tozasertib] (partner 0.1 µM)
Summary of the method: (§1)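 Each reported value is a median over duplicate plates. It expresses relative viability: treated-well nuclei count divided by vehicle-well nuclei count. Lung cancer cell lines in 1536-well plates were dosed by pin tool a day after seeding, alone with one drug or with a fixed anchor-drug dose plus five library-drug doses (not always all listed) in √10 steps, and nuclei were counted after 5 days.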

Dabrafenib + AZD7762 = compound: CC(C)(C)c1nc(-c2cccc(NS(=O)(=O)c3c(F)cccc3F)c2F)c(-c2ccnc(N)n2)s1 [Dabrafenib] + NC(=O)Nc1cc(-c2cccc(F)c2)sc1C(=O)N[C@H]1CCCNC1 [AZD7762] (partner 0.2 µM)
Summary of the method: as §1

Dabrafenib + Pemetrexed = compound: CC(C)(C)c1nc(-c2cccc(NS(=O)(=O)c3c(F)cccc3F)c2F)c(-c2ccnc(N)n2)s1 [Dabrafenib] + Nc1nc2[nH]cc(CCc3ccc(C(=O)N[C@@H](CCC(=O)O)C(=O)O)cc3)c2c(=O)[nH]1 [Pemetrexed] (partner 0.2 µM)
Summary of the method: as §1

VX-702 + Phenformin = compound: NC(=O)c1ccc(N(C(N)=O)c2c(F)cccc2F)nc1-c1ccc(F)cc1F [VX-702] + N=C(N)NC(=N)NCCc1ccccc1 [Phenformin] (partner 250 µM)
Summary of the method: as §1

Cell Line | relative viability (Dabrafenib + Tozasertib; first compound 0.003 µM) | relative viability (Dabrafenib + Tozasertib; first compound 0.009487 µM) | relative viability (Dabrafenib + Tozasertib; first compound 0.03 µM) | relative viability (Dabrafenib + Tozasertib; first compound 0.09487 µM) | relative viability (Dabrafenib + Tozasertib; first compound 0.3 µM) | relative viability (Dabrafenib + AZD7762; first compound 0.003 µM) | relative viability (Dabrafenib + AZD7762; first compound 0.009487 µM) | relative viability (Dabrafenib + AZD7762; first compound 0.03 µM) | relative viability (Dabrafenib + AZD7762; first compound 0.09487 µM) | relative viability (Dabrafenib + AZD7762; first compound 0.3 µM) | relative viability (Dabrafenib + Pemetrexed; first compound 0.003 µM) | relative viability (Dabrafenib + Pemetrexed; first compound 0.009487 µM) | relative viability (Dabrafenib + Pemetrexed; first compound 0.03 µM) | relative viability (Dabrafenib + Pemetrexed; first compound 0.09487 µM) | relative viability (Dabrafenib + Pemetrexed; first compound 0.3 µM) | relative viability (VX-702 + Phenformin; first compound 0.02 µM) | relative viability (VX-702 + Phenformin; first compound 0.2 µM) | relative viability (VX-702 + Phenformin; first compound 0.6325 µM) | relative viability (VX-702 + Phenformin; first compound 2 µM)
LXF-289 | 0.192 | 0.178 | 0.116 | 0.203 | 0.187 | 0.162 | 1.13 | 1.22 | 1.06 | 1.29 | 0.751 | 0.872 | 0.965 | 0.813 | 1.08 | 0.538 | 0.534 | 0.5 | 0.527
NCI-H23 |  | 0.431 | 0.344 | 0.337 | 0.375 |  | 0.207 | 0.205 | 0.254 | 0.217 |  | 0.67 | 0.504 | 0.7 | 0.597 | 0.787 | 0.77 | 0.884 | 0.875
NCI-H322M |  | 0.49 | 0.373 | 0.446 | 0.436 |  | 0.613 |  | 0.619 | 0.612 |  | 0.711 |  | 0.602 | 0.572 | 0.744 | 0.757 | 0.742 | 0.915
NCI-H358 | 0.102 | 0.0949 | 0.0962 | 0.106 | 0.0813 |  | 0.866 | 0.6 | 0.637 | 0.775 | 0.169 | 0.166 | 0.152 | 0.209 | 0.163 | 0.318 | 0.293 | 0.289 | 0.429
NCI-H441 |  | 0.555 | 0.632 | 0.571 | 0.495 |  | 1.22 | 1.02 | 1.03 | 1.34 |  | 0.232 | 0.255 | 0.259 | 0.263 | 0.829 | 0.992 | 0.687 | 0.918
NCI-H460 | 0.0459 | 0.482 | 0.436 | 0.374 | 0.375 | 0.282 | 0.616 | 0.546 | 0.556 | 0.493 | 0.0599 | 0.0868 | 0.0634 | 0.0648 | 0.0684 | 0.532 | 0.551 | 0.608 | 0.373
NCI-H522 |  | 0.471 | 0.59 | 0.58 | 0.621 |  | 0.936 | 0.717 | 0.88 | 0.841 |  | 1.08 | 0.833 | 1.07 | 0.989 | 0.584 | 0.691 | 0.611 | 0.672
NCI-H596 |  | 0.781 | 0.826 | 0.821 | 0.977 |  | 1.2 | 0.958 | 1.14 | 1.16 |  | 0.492 | 0.44 | 0.579 | 0.469 | 0.587 | 0.749 | 0.797 | 0.742
NCI-H647 | 0.388 | 0.292 | 0.27 | 0.298 | 0.434 |  | 0.437 |  | 0.32 | 0.43 | 0.187 | 0.186 | 0.167 | 0.159 | 0.16 | 0.487 | 0.654 | 0.46 | 0.728
NCI-H650 |  | 0.667 | 0.738 | 0.502 | 0.38 |  | 1.08 | 0.82 | 0.663 | 0.724 |  | 0.938 | 0.846 | 0.522 | 0.464 | 0.515 |  | 0.44 | 0.524
NCI-H838 | 0.29 | 0.34 | 0.239 | 0.255 | 0.258 | 0.993 | 0.885 | 0.91 | 0.889 | 0.89 | 0.264 | 0.252 | 0.239 | 0.239 | 0.245 | 0.607 | 0.609 | 0.557 | 0.669
NCI-H1355 |  | 0.677 | 0.519 | 0.439 | 0.577 |  | 0.814 | 0.669 | 0.655 | 0.803 |  | 1.09 | 0.965 | 0.804 | 1.08 | 0.53 | 0.445 | 0.482 | 0.494
NCI-H1395 | 0.718 | 0.633 | 0.762 | 0.667 | 0.648 |  | 0.385 | 0.402 | 0.424 | 0.412 |  | 0.813 | 0.907 | 0.749 | 0.806 | 0.465 | 0.445 | 0.454 | 0.46
NCI-H1437 | 0.496 | 0.385 | 0.412 | 0.409 | 0.416 | 1.09 | 1.16 | 1.19 | 1.11 | 1.18 | 0.338 | 0.304 | 0.318 | 0.324 | 0.321 | 0.326 | 0.352 | 0.31 | 0.313
NCI-H1651 | 0.741 | 0.763 | 0.57 | 0.668 | 0.679 | 0.25 | 0.466 | 0.461 | 0.43 | 0.451 | 0.575 | 0.555 | 0.525 | 0.416 | 0.613 | 0.37 | 0.34 | 0.341 | 0.301
NCI-H1666 | 0.562 | 0.637 | 0.678 | 0.672 | 0.672 | 0.592 | 0.879 | 0.742 | 0.778 | 0.937 | 0.787 | 0.864 | 0.877 | 0.97 | 0.865 | 0.562 |  | 0.563 | 0.633
NCI-H1734 |  | 0.248 | 0.251 | 0.312 | 0.271 |  | 0.587 | 0.5 | 0.452 | 0.378 |  | 0.417 | 0.397 | 0.421 | 0.411 | 0.403 | 0.355 | 0.369 | 0.298
